Measurements reported in US8969565B2, “Imidazo[1,2-b]pyridazine-based compounds, compositions comprising them, and methods of their use” (Lexicon Pharmaceuticals, Inc., priority 2012, dated 2015).

Target: T1, AAK1 (Homo sapiens, UniProt Q2M2I8)
T1 construct: HA; expressed in transfected cells; host or cells: HEK293F
Assay: HEK281 cell-based assay (phospho-mu2 Western blot in transfected HEK293F cells)
Conditions: 3 hours incubation, read-out: CBA IC50
Summary of the method: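 HEK293F cells co-transfected with full-length human AAK1/HA and Flag/AP2M1 were treated next day with 5 compound concentrations (3-fold dilutions) in DMEM+0.5% FBS for 3 hours at 37° C. Lysates were Western blotted for phospho-mu2, with total mu2 detected by anti-Flag.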

T1 sequence (Q2M2I8 1-863 isoform Q2M2I8-2): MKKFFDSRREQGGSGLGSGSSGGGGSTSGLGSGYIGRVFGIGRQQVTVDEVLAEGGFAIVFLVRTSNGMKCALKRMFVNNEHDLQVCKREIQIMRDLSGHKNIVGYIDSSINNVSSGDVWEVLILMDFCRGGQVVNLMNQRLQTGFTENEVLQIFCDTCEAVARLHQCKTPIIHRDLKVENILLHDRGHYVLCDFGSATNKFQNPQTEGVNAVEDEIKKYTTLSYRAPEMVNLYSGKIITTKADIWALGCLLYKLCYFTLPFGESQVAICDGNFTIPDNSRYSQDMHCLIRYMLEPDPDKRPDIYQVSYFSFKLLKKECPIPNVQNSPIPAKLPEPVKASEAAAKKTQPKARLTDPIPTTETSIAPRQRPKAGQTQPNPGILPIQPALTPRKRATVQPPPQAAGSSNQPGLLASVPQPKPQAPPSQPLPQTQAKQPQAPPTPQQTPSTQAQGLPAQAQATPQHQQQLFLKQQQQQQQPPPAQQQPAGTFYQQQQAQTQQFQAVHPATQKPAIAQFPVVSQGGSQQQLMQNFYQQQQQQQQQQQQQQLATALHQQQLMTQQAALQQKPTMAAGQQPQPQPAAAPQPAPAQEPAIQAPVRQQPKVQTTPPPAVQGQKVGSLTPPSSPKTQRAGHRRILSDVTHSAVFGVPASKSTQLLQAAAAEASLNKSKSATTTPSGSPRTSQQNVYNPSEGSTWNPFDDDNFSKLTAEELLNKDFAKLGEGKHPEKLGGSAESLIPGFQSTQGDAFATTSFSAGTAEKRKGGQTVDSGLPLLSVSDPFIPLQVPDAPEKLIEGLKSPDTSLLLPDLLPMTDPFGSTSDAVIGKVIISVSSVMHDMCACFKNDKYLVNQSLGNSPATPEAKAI

**Q.** For CC(C)(C)OC(=O)N1CCCC1CCNc1ccc2ncc(-c3ccc(CN)cc3)n2n1 (stereo not shown) [tert-butyl 2-(2-((3-(4-(aminomethyl)phenyl)imidazo[1,2-b]pyridazin-6-yl)amino)ethyl)pyrrolidine-1-carboxylate], which IC50 is on record?
**A.** Its IC50 is ≤ 10 nM.

**Q.** With CC(C)N(CCNc1ccc2ncc(-c3ccc(C(N)=O)cc3)n2n1)C(=O)OC1CCCC1 [cyclopentyl (2-((3-(4-carbamoylphenyl)imidazo[1,2-b]pyridazin-6-yl)amino)ethyl)(isopropyl)carbamate] as the compound, how does the IC50 read?
**A.** Its IC50 is ≤ 100 nM.

**Q.** With CNC(=O)c1ccc(-c2cnc3ccc(NCCc4ccccc4OC(F)(F)F)nn23)cc1 [N-methyl-4-(6-((2-(trifluoromethoxy)phenethyl)amino)imidazo[1,2-b]pyridazin-3-yl)benzamide] as the compound, how does the IC50 read?
**A.** Its IC50 is ≤ 10 nM.

**Q.** CC(C)OCCNc1ccc2ncc(-c3ccns3)n2n1 [N-(2-isopropoxyethyl)-3-(isothiazol-5-yl)imidazo[1,2-b]pyridazin-6-amine] was tested. Which IC50 did it give?
**A.** Its IC50 is ≤ 100 nM.

**Q.** Which IC50 does the source give for CC(C)OC(=O)N(C)CCNc1ccc2ncc(-c3ccc(C4CCCN4)cc3)n2n1 (stereo not shown) [isopropyl methyl(2-((3-(4-(pyrrolidin-2-yl)phenyl)imidazo[1,2-b]pyridazin-6-yl)amino)ethyl)carbamate] here?
**A.** Its IC50 is ≤ 10 nM.

**Q.** For COc1ccccc1-c1cnc2ccc(NC[C@@H]3CCCN3C(C)=O)nn12 [(S)-1-(2-(((3-(2-methoxyphenyl)imidazo[1,2-b]pyridazin-6-yl)amino)methyl)pyrrolidin-1-yl)ethanone], which IC50 is on record?
**A.** The IC50 was ≤ 100 nM.

**Q.** How did the IC50 turn out when NCc1ccc(-c2cnc3ccc(NCC4CC4)nn23)cc1 [3-(4-(aminomethyl)phenyl)-N-(cyclopropylmethyl)imidazo[1,2-b]pyridazin-6-amine] was run?
**A.** Its IC50 is ≤ 1000 nM.

**Q.** For COc1cnccc1-c1cnc2ccc(NC[C@@H]3CCCN3C(=O)OC(C)C)nn12 [(S)-isopropyl 2-(((3-(3-methoxypyridin-4-yl)imidazo[1,2-b]pyridazin-6-yl)amino)methyl)pyrrolidine-1-carboxylate], which IC50 is on record?
**A.** The IC50 was ≤ 10 nM.

**Q.** With COC(=O)N(CCNc1ccc2ncc(-c3ccncc3OC)n2n1)C(C)C [methyl isopropyl(2-((3-(3-methoxypyridin-4-yl)imidazo[1,2-b]pyridazin-6-yl)amino)ethyl)carbamate] as the compound, how does the IC50 read?
**A.** The IC50 was ≤ 10 nM.

**Q.** For CCCCNc1ccc2ncc(-c3ccc([C@@H]4CCCN4)cc3)n2n1 [(S)-N-butyl-3-(4-(pyrrolidin-2-yl)phenyl)imidazo[1,2-b]pyridazin-6-amine], which IC50 is on record?
**A.** Its IC50 is ≤ 100 nM.

**Q.** CC(C)(O)CCNc1ccc2ncc(-c3ccc(CN)cc3)n2n1 [4-((3-(4-(aminomethyl)phenyl)imidazo[1,2-b]pyridazin-6-yl)amino)-2-methylbutan-2-ol] was tested. Which IC50 did it give?
**A.** The IC50 was ≤ 100 nM.

**Q.** With CN(CCNc1ccc2ncc(-c3ccccc3F)n2n1)C(=O)OC(C)(C)C [tert-butyl (2-((3-(2-fluorophenyl)imidazo[1,2-b]pyridazin-6-yl)amino)ethyl)(methyl)carbamate] as the compound, how does the IC50 read?
**A.** Its IC50 is ≤ 100 nM.

**Q.** For CCOC(=O)N(C)CCNc1ccc2ncc(-c3ccc(C(=O)NC)cc3)n2n1 [ethyl methyl(2-((3-(4-(methylcarbamoyl)phenyl)imidazo[1,2-b]pyridazin-6-yl)amino)ethyl)carbamate], which IC50 is on record?
**A.** Its IC50 is ≤ 100 nM.

**Q.** For COc1cnccc1-c1cnc2ccc(NCCN(C)C(=O)OC(C)(C)C)nn12 [tert-butyl (2-((3-(3-methoxypyridin-4-yl)imidazo[1,2-b]pyridazin-6-yl)amino)ethyl)(methyl)carbamate], which IC50 is on record?
**A.** Its IC50 is ≤ 1000 nM.

**Q.** CCCCNc1ccc2ncc(-c3ccc(CNCCC)cc3)n2n1 [N-butyl-3-(4-((propylamino)methyl)phenyl)imidazo[1,2-b]pyridazin-6-amine] was tested. Which IC50 did it give?
**A.** Its IC50 is ≤ 1000 nM.

**Q.** CCOC(=O)CCCNc1ccc2ncc(-c3ccc(CN)cc3)n2n1 [ethyl 4-((3-(4-(aminomethyl)phenyl)imidazo[1,2-b]pyridazin-6-yl)amino)butanoate] was tested. Which IC50 did it give?
**A.** Its IC50 is ≤ 100 nM.

**Q.** How did the IC50 turn out when COc1cnccc1-c1cnc2ccc(NCCN(C(=O)OC(C)(C)C)C(C)C)nn12 [tert-butyl isopropyl(2-((3-(3-methoxypyridin-4-yl)imidazo[1,2-b]pyridazin-6-yl)amino)ethyl)carbamate] was run?
**A.** Its IC50 is ≤ 100 nM.

**Q.** With COc1cnccc1-c1cnc2ccc(N3CCN(C(=O)CC(C)(C)C)CC3)nn12 [1-(4-(3-(3-methoxypyridin-4-yl)imidazo[1,2-b]pyridazin-6-yl)piperazin-1-yl)-3,3-dimethylbutan-1-one] as the compound, how does the IC50 read?
**A.** Its IC50 is ≤ 100 nM.

**Q.** Which IC50 does the source give for COc1cnccc1-c1cnc2ccc(NCCN(C(=O)OCCF)C(C)C)nn12 [2-fluoroethyl isopropyl(2-((3-(3-methoxypyridin-4-yl)imidazo[1,2-b]pyridazin-6-yl)amino)ethyl)carbamate] here?
**A.** The IC50 was ≤ 1000 nM.

**Q.** Which IC50 does the source give for COc1ccccc1-c1cnc2ccc(NCCN(C(=O)OC(C)C)C(C)C)nn12 [isopropyl isopropyl(2-((3-(2-methoxyphenyl)imidazo[1,2-b]pyridazin-6-yl)amino)ethyl)carbamate] here?
**A.** Its IC50 is ≤ 100 nM.

**Q.** With CC(C)OC(=O)N(C)CCCNc1ccc2ncc(-c3ccc(CN)cc3)n2n1 [isopropyl (3-((3-(4-(aminomethyl)phenyl)imidazo[1,2-b]pyridazin-6-yl)amino)propyl)(methyl)carbamate] as the compound, how does the IC50 read?
**A.** Its IC50 is ≤ 100 nM.

**Q.** For CN(CCNc1ccc2ncc(-c3cccc(C(N)=O)c3)n2n1)C(=O)OC(C)(C)C [tert-butyl (2-((3-(3-carbamoylphenyl)imidazo[1,2-b]pyridazin-6-yl)amino)ethyl)(methyl)carbamate], which IC50 is on record?
**A.** Its IC50 is ≤ 100 nM.

**Q.** Which IC50 does the source give for CCCCNc1ccc2ncc(-c3ccc(C4CCCN4)cc3)n2n1 (stereo not shown) [N-butyl-3-(4-(pyrrolidin-2-yl)phenyl)imidazo[1,2-b]pyridazin-6-amine] here?
**A.** Its IC50 is ≤ 1000 nM.

**Q.** CCCOC(=O)N(CCNc1ccc2ncc(-c3ccncc3OC)n2n1)C(C)C [propyl isopropyl(2-((3-(3-methoxypyridin-4-yl)imidazo[1,2-b]pyridazin-6-yl)amino)ethyl)carbamate] was tested. Which IC50 did it give?
**A.** The IC50 was ≤ 1000 nM.

**Q.** CN(CCCNc1ccc2ncc(-c3ccc(CN)s3)n2n1)c1ccccc1 [N1-(3-(5-(aminomethyl)thiophen-2-yl)imidazo[1,2-b]pyridazin-6-yl)-N3-methyl-N3-phenylpropane-1,3-diamine] was tested. Which IC50 did it give?
**A.** The IC50 was ≤ 1000 nM.

**Q.** COCCCNc1ccc2ncc(-c3ccc(C(C)=O)s3)n2n1 [1-(5-(6-((3-methoxypropyl)amino)imidazo[1,2-b]pyridazin-3-yl)thiophen-2-yl)ethanone] was tested. Which IC50 did it give?
**A.** Its IC50 is ≤ 1000 nM.

**Q.** COc1ccc(F)cc1-c1cnc2ccc(NCCN(C(=O)OC(C)C)C(C)C)nn12 [isopropyl (2-((3-(5-fluoro-2-methoxyphenyl)imidazo[1,2-b]pyridazin-6-yl)amino)ethyl)(isopropyl)carbamate] was tested. Which IC50 did it give?
**A.** The IC50 was ≤ 100 nM.

**Q.** With CCC(C)CNc1ccc2ncc(-c3ccc(CN)cc3)n2n1 (stereo not shown) [3-(4-(aminomethyl)phenyl)-N-(2-methylbutyl)imidazo[1,2-b]pyridazin-6-amine] as the compound, how does the IC50 read?
**A.** The IC50 was ≤ 1000 nM.

**Q.** With CN(CCNc1ccc2ncc(-c3ccc(C4CCCN4)cc3)n2n1)C(=O)OC(C)(C)C (stereo not shown) [tert-butyl methyl(2-((3-(4-(pyrrolidin-2-yl)phenyl)imidazo[1,2-b]pyridazin-6-yl)amino)ethyl)carbamate] as the compound, how does the IC50 read?
**A.** Its IC50 is ≤ 10 nM.

**Q.** For CC(C)COCCNc1ccc2ncc(-c3ccc(CN)cc3)n2n1 [3-(4-(aminomethyl)phenyl)-N-(2-isobutoxyethyl)imidazo[1,2-b]pyridazin-6-amine], which IC50 is on record?
**A.** The IC50 was ≤ 100 nM.

**Q.** NC(=O)c1ccc(-c2cnc3ccc(NCCc4ccccc4OC(F)(F)F)nn23)cc1 [4-(6-((2-(trifluoromethoxy)phenethyl)amino)imidazo[1,2-b]pyridazin-3-yl)benzamide] was tested. Which IC50 did it give?
**A.** Its IC50 is ≤ 10 nM.

**Q.** For CC(C)OCCNc1ccc2ncc(-c3cscn3)n2n1 [N-(2-isopropoxyethyl)-3-(thiazol-4-yl)imidazo[1,2-b]pyridazin-6-amine], which IC50 is on record?
**A.** The IC50 was ≤ 1000 nM.

**Q.** Which IC50 does the source give for COc1ccccc1-c1cnc2ccc(NCCN(C)C(=O)OC(C)C)nn12 [isopropyl (2-((3-(2-methoxyphenyl)imidazo[1,2-b]pyridazin-6-yl)amino)ethyl)(methyl)carbamate] here?
**A.** The IC50 was ≤ 100 nM.

**Q.** For CCOC(=O)N1CCC[C@H]1CNc1ccc2ncc(-c3ccc(CN)cc3)n2n1 [(S)-ethyl 2-(((3-(4-(aminomethyl)phenyl)imidazo[1,2-b]pyridazin-6-yl)amino)methyl)pyrrolidine-1-carboxylate], which IC50 is on record?
**A.** The IC50 was ≤ 10 nM.

**Q.** COc1cnccc1-c1cnc2ccc(NC[C@@H]3CCCN3C(C)=O)nn12 [(S)-1-(2-(((3-(3-methoxypyridin-4-yl)imidazo[1,2-b]pyridazin-6-yl)amino)methyl)pyrrolidin-1-yl)ethanone] was tested. Which IC50 did it give?
**A.** The IC50 was ≤ 100 nM.

**Q.** COc1cnccc1-c1cnc2ccc(NCCN(C)C(=O)OC(C)C)nn12 [isopropyl (2-((3-(3-methoxypyridin-4-yl)imidazo[1,2-b]pyridazin-6-yl)amino)ethyl)(methyl)carbamate] was tested. Which IC50 did it give?
**A.** The IC50 was ≤ 100 nM.

**Q.** With COc1cnccc1-c1cnc2ccc(NCCN(C(=O)OCC(C)C)C(C)C)nn12 [isobutyl isopropyl(2-((3-(3-methoxypyridin-4-yl)imidazo[1,2-b]pyridazin-6-yl)amino)ethyl)carbamate] as the compound, how does the IC50 read?
**A.** The IC50 was ≤ 100 nM.

**Q.** CCCCNc1ccc2ncc(-c3ccc(CNCC4CC4)cc3)n2n1 [N-butyl-3-(4-(((cyclopropylmethyl)amino)methyl)phenyl)imidazo[1,2-b]pyridazin-6-amine] was tested. Which IC50 did it give?
**A.** The IC50 was ≤ 1000 nM.

**Q.** CC(=O)c1ccc(-c2cnc3ccc(NCCN(C)c4ccccc4)nn23)s1 [1-(5-(6-((2-(methyl(phenyl)amino)ethyl)amino)imidazo[1,2-b]pyridazin-3-yl)thiophen-2-yl)ethanone] was tested. Which IC50 did it give?
**A.** The IC50 was ≤ 100 nM.

**Q.** CC(C)(C)OC(=O)N1CCC[C@H]1CNc1ccc2ncc(Br)n2n1 [(S)-tert-butyl 2-(((3-bromoimidazo[1,2-b]pyridazin-6-yl)amino)methyl)pyrrolidine-1-carboxylate] was tested. Which IC50 did it give?
**A.** The IC50 was ≤ 100 nM.

**Q.** With CCCCNc1ccc2ncc(-c3ccnc(N)c3)n2n1 [3-(2-aminopyridin-4-yl)-N-butylimidazo[1,2-b]pyridazin-6-amine] as the compound, how does the IC50 read?
**A.** The IC50 was ≤ 1000 nM.

**Q.** With CC(C)CC(=O)N1CCC[C@H]1CNc1ccc2ncc(-c3ccc(CN)cc3)n2n1 [(S)-1-(2-(((3-(4-(aminomethyl)phenyl)imidazo[1,2-b]pyridazin-6-yl)amino)methyl)pyrrolidin-1-yl)-3-methylbutan-1-one] as the compound, how does the IC50 read?
**A.** Its IC50 is ≤ 10 nM.

**Q.** For NCc1ccc(-c2cnc3ccc(NCCC4CC4)nn23)cc1 [3-(4-(aminomethyl)phenyl)-N-(2-cyclopropylethyl)imidazo[1,2-b]pyridazin-6-amine], which IC50 is on record?
**A.** Its IC50 is ≤ 1000 nM.
